Measured values from article PMC11251039, “Harnessing cholesterol uptake of malaria parasites for therapeutic applications” (EMBO Molecular Medicine, 2024).
“And” between values parts separate entries of the source, which are not always exact repeats. Equal values may be shown once. Read-outs that look alike come from different tables or passages of the source.

Columns and labels:
[1] = Human hepatoma viability assay (CellTiter-Blue); format: cell-based; conditions: human, replicate data points, read-out: Huh7 viability, dose-response data points (Figure 3F); for viability at 48 h, 0.137174 µM: 0.137174210 uM
Summary of the method: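 Huh7 cells (10,000/well) were seeded and treated the next day with serially diluted compound or DMSO, with media partially renewed with fresh dilutions over two days.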

[2] = test system: P. berghei liver stage parasites; experiment: P. berghei liver stage parasite size and number (fluorescence microscopy, coverslips); format: cell-based, Plasmodium berghei; conditions: for Normalised mean size of liver stage parasites, percentage of the solvent control: per coverslip, source data Fig. 3C
Protocol: Uninfected wells served as a control for background luminescence. […] No other manipulations were performed.
(§1) Appendix Fraser/Curtis et al.
For measurement of parasite size and number, 20,000 Huh7 cells were seeded onto collagen-coated coverslips on the day prior to infection. As above, 10,000 – 20,000 sporozoites were added per slide, allowed to invade for 60 minutes after centrifugation, and then incubated for […]
Infected cells were fixed with 3% paraformaldehyde in PBS, permeabilized with 0.3% v/v Triton X-100, and labelled with 1:1,000 polyclonal chicken anti-GFP (Abcam ab13970), 1:2,000 goat anti-chicken Alexa […]
intrinsic GFP fluorescence could be detected, as well as Fluoromount-G® containing 4′,6-diamidino-2-phenylindole (DAPI; Southern Biotech), to stain parasite and host cell nuclei.
Images were collected on a Zeiss Axio Observer Z2 microscope with a Zeiss AxioCam MRm at 200× or 400× (for quantification) or 630× (for cell images) magnification, with a resolution of […], 163 nm or 102 nm per pixel respectively. Alexa Fluor™ 546 fluorescence was detected at 546/13 nm excitation and 675/35 nm emission. […]
fluorescence was detected at 470/20 nm excitation and 525/25 nm emission. DAPI fluorescence (nucleic acid) was detected at 359/24 nm ex and 445/25 nm em. For quantification, all cells on each coverslip were imaged under the same settings for each experiment. P. berghei liver stage size was measured as described (24) using Fiji ImageJ (25). Liver-stage parasites were identified and delineated in fluorescent images using defined threshold levels, and the identified fluorescent areas were used to measure parasite area. The number of parasites on each coverslip was also counted. […]
manipulations were performed.

[3] = test system: P. falciparum CAM3.II ring stages (0–3 h post invasion); experiment: Plasmodium falciparum ring stage survival assay, resistant strain; format: cell-based
Protocol: Following tight synchronisation using sorbitol and Percoll® floatation, ring stage CAM3.II and CAM3.IIREV parasites (0–3 h post invasion) at 1% parasitaemia and 2% haematocrit were incubated with 700 nM of compounds or solvent-only controls for exactly 6 h, before removing the drug, thoroughly washing in RPMI with HEPES, and returning to culture conditions for a further 66 h. Some cells were treated with 700 nM artesunate for 72 h as a no-growth control. DNA replication (indicating growth) was measured at the specified time using SYBR Safe DNA Stain. Microscope slide smears of each condition were stained with 10% v/v Giemsa and examined under a light microscope (×1000 magnification); with ‘viable’ (morphologically normal) and ‘non-viable’ (morphologically aberrant; vacuolated or pyknotic) parasites distinguished according to standard protocol (Witkowski et al, [2013]). Images were captured using a Leica ICC50 camera, with a resolution of 76 nm per pixel, and cropped from larger images using Fiji ImageJ.
as §1
Cells were detached from a flask using 0.25% Trypsin with 0.2 g/L EDTA (Sigma T4049) and washed with culture media containing no phenol red. Cells were incubated with a serial dilution of each compound, or media/DMSO alone. The protein synthesis inhibitor cycloheximide (Sigma 01810) at 10 µg/mL was used as a positive control to determine background absorbance. 5,000 cells were seeded in each well. After 96 hours, 0.45 mg/mL methylthiazolyldiphenyl-tetrazolium bromide (MTT; Sigma M2128) was added and incubated for a further two hours, before mixing 1.1:1 with 10% w/v sodium dodecyl sulfate (SDS) to solubilise crystals and freezing the plate at -18 °C to stop the assay. Plates were defrosted at room temperature and absorbance was read at 570 nm in an Infinite M1000 pro plate reader […]
Plasmodium falciparum Ring Stage Survival Assay
Ring stage survival assays were conducted according to standard protocols with some modifications (27, 28). CAM3.11 and CAM3.11REV parasites were sorbitol synchronised twice, 12 hours apart, and then incubated for a further 30 hours until the majority of the parasites were mature schizonts (with clearly separated nuclei). Pelleted RBCs were incubated at 37 °C with heparinised RPMI for 15 minutes, and then centrifuged over 75% Percoll® in PBS for 15 minutes at 1,000 g. Mature schizonts were collected, washed with warm RPMI, and cultured for exactly three hours with fresh uRBCs and culture media. After 3 hours, the cultures were sorbitol synchronised and incubated in duplicate with 700 nM of artesunate, PAYb076a, GGA5, HJB8a53, a DMSO solvent-only control or media alone for exactly six hours, before removing the drug, washing in RPMI, and returning to culture conditions. Samples of each cell suspension were transferred to a -18 °C freezer at the start of the assay (time = 0) or treated for the entire 72 hours with 700 nM artesunate to determine background fluorescence under no-growth conditions. After a further 66 hours of incubation (totalling 72 hours), cells were […]
resuspended, and a sample from each well was transferred to a fresh plate and frozen at -18 °C.
Microscope slide smears were made using the remaining cells and stained with 10% v/v Giemsa. Plates were thawed and SYBR Safe DNA Gel Stain (final concentration 1/10,000) diluted in lysis buffer (as above) was added for DNA detection at 490 nm excitation / 520 nm emission on a FLUOstar Optima fluorescence plate reader. Parasite proliferation and viability were also assessed using Giemsa-stained smears examined under a light microscope (1,000× magnification); with ‘viable’ and ‘non-viable’ (vacuolated or pyknotic) parasites distinguished according to standard protocol. Images were captured using a Leica ICC50 camera, with a resolution of 76 nm per pixel.
Growth inhibition data were normalised by subtracting background fluorescence, […]

COc1cc(NC(C)CCCNC(=O)CCC(=O)O[C@H]2CC[C@H]3[C@@H]4CC=C5C[C@@H](O)CC[C@]5(C)[C@H]4CC[C@]23C)c2ncccc2c1 (stereo partly drawn) [C-17-PQ]
viability at 48 h, 0.0152416 µM ([1]; 0.015241580 uM): 94.8% | viability at 48 h, 0.0457247 µM ([1]; 0.045724740 uM): 94.9% | viability at 48 h, 0.137174 µM [1]: 95.3% | viability at 48 h, 0.411523 µM ([1]; 0.411522630 uM): 94.5% | Reduction of parasite size (area) compared to untreated parasites ([2]; 0.3 µM, 48 h): 48% | Normalised mean size of liver stage parasites, percentage of the solvent control ([2]; 0.3 μM, 48 h, listed as BC5B): 47.88% and 39.55% and 51.73% and 68.26% and 63.53% and 38.56% | Reduction of parasite size (area) compared to untreated parasites ([2]; 3 µM, 48 h): 90% | Parasite number per coverslip compared to the same concentration of primaquine ([2]; 0.3 or 3 µM, 48 h): significantly lower

CC(C)OC(=O)CCC(=O)O[C@H]1CC[C@H]2[C@@H]3CC=C4C[C@@H](O)CC[C@]4(C)[C@H]3CC[C@]12C [C-17-link]
Ring stage survival, growth ([3]; 700 nM, 6 h treatment, 66 h further growth, CAM3.II resistant): did not significantly impact the growth | Ring stage survival, individual data points (Figure 4C) ([3]; CAM3.11, replicate experiments, listed as HJB8a53): 67.82 and 103.7 and 86.39 and 70.09

COc1cc(NC(C)CCCNC(=O)CCC(=O)OC(C)C)c2ncccc2c1 (stereo not drawn) [PQ-link]
viability at 48 h, 0.137174 µM ([1]; Huh7 hepatoma cells): 99.3%

COc1cc(NC(C)CCCN)c2ncccc2c1 (stereo not drawn) [Primaquine, primaquine, reference compound]
Reduction of parasite size (area) compared to untreated parasites ([2]; 0.3 µM, 48 h): not at 0.3 µM | Normalised mean size of liver stage parasites, percentage of the solvent control ([2]; 0.3 μM, 48 h): 100% and 99.34% and 108% and 106.3% and 110.6% and 86.33% | Figure 3C - Individual Data Points (P. berghei liver stage parasite size, individual parasites) ([2]; 0.3 μM, Assay 2, first replicate column, individual data points): 43.02 and 107.9 and 92.89 and 48.67 and 95.55 and 31.33 and 39.11 and 132.2 and 73.2 and 29.42 | Reduction of parasite size (area) compared to untreated parasites ([2]; 3 µM, 48 h): 61%
